≈ marks a conversion by molar mass, not a printed value. Where two headings read alike, the source gives them in different places.
What was measured:
[1] = tested on: Methicillin Resistant Staphylococcus aureus strain USA 300, NRS384 (S. aureus); assay: Minimum inhibitory concentration, broth micro-dilution (CLSI); format: cell-based
Method: (§1) In vitro antimicrobial activity of each compound was determined by measuring minimal inhibitor concentrations (MICs) using the broth micro-dilution technique as approved by the Clinical and Laboratory Standards Institute (CLSI) (Methods for Dilution Antimicrobial Susceptibility Tests for Bacteria that Grow Aerobically; Approved Standard—Eighth Edition. CLSI document M07-A8. Wayne, Pa.: Clinical and Laboratory Standards; 2009). Antibacterial activity was measure against three strains of bacteria: a Methicillin Resistant Staphylococcus aureus strain USA 300, NRS384 (S. aureus); a strain of Escherichia coli MC4100 harboring the IMP4213 (E. coli IMP), which results in increased outer-membrane permeability (B Martin and Silhavy T. Imp/OstA is required for cell envelope biogenesis in Escherichia coli. (2002) Molecular Microbiology, 45(5), 1289-1302), and Escherichia coli ATCC 25922 (E. coli), a clinically relevant Gram-negative strain. Cells were inoculated onto plates of Trypyticase Soy Agar or Luria Agar respectively and grown at 35° C. for 20 hours. Inocula suspensions were prepared by scraping cells into 1 mL of testing media (cation adjusted Mueller Hinton Broth supplemented with 0.002% v/v Tween-80) and diluting to a final OD600 nm of 0.01.
(§2) Test compounds were prepared in DMSO at a concentration of 10 mg/mL. […] In protocol 2, the compound stocks were diluted into testing media at a concentration of 4 μg/mL and serial 2-fold dilutions were made in the same media, in 96-well U bottom microtiter dishes, for a total of 10 compound concentrations. In protocol 3, compound stocks were diluted into testing media at a concentration of 0.5 μg/mL, with serial 2-fold dilutions conducted as described above. […] Inocula suspensions were added to the 2-fold serial dilutions of test compounds to a final density of OD OD600 nm of 0.0005 and incubated at 35° C. for 22 hours.

[2] = target: T1, SpsB (Staphylococcus aureus signal peptidase) (Staphylococcus aureus, UniProt P0A070); assay: Whole-cell SpsB biochemical screening assay (kinetic fluorogenic enzyme activity)
T1 construct: a suspension of Staphylococcus aureus cells as a source of SpsB instead of recombinant SpsB protein; endogenous in cells; host or cells: S. aureus, USA300 background, overexpressing SpsB (whole-cell suspension)
Method: A kinetic fluorogenic enzyme activity assay was used to assess inhibition of SpsB (Staphylococcus aureus signal peptidase) activity and IC50s were determined. This assay uses a suspension of Staphylococcus aureus cells as a source of SpsB instead of recombinant SpsB protein.
Cell preparation: Luria broth (LB) was inoculated with S. aureus (USA300 background, overexpressing SpsB) and shaken at 37° C. until an OD600 nm of 1.5-2.0 was reached (˜4 hr). The culture was then diluted to an OD600 nm of 1.0 with LB, aliquoted and centrifuged at 10,000×g for 2 mins. The supernatant was removed and the pellet was resuspended in phosphate buffer (1×PBS, 12.5 mg/L MgCl2, 25 mg/L CaCl2, 0.1% Tween-80) to an OD600 nm of 0.5, then centrifuged again at 10,000×g for 2 mins. The supernatant was removed and the pellets were frozen at −20° C.
Test compounds were prepared in DMSO at a concentration of 10 mg/mL. These compound stocks were diluted into DMSO to a concentration of 25 μg/mL and serial 3-fold dilutions were made in DMSO, for a total of 11 compound concentrations. 20 nL of each compound solution was pre-spotted into a white 384-well plate (50 μL/well polypropylene, Nunc) using acoustic fluid transfer (Echo).
Frozen S. aureus pellets were resuspended in assay buffer (1×PBS, 12.5 mg/L MgCl2, 25 mg/L CaCl2, 0.1% Tween-80) to an OD600 nm of 0.05, then mixed 1:1 (v/v) with 20 μM substrate ((Dabcyl)βAla-KPAKAAE(Edans)) in assay buffer, and this solution was added (20 μL/well) to the 384-well plate that had been pre-spotted with compound. Fluorescence intensity was then immediately read kinetically for 30 minutes with 2 minute read intervals to monitor cleavage of the internally quenched peptide substrate (excitation wavelength=340 nm, emission wavelength=490 nm, Molecular Devices Spectramax M5). Reaction rate (slope) was plotted against inhibitor concentration to derive the IC50.

[3] = tested on: Escherichia coli MC4100 harboring the IMP4213 (E. coli IMP); assay: microbe, parasite or virus in culture; format: cell-based; conditions: 22 h, read-out: MIC (μg/mL) E. coli IMP
Method: as §1, §2

[4] = tested on: Escherichia coli ATCC 25922 (E. coli); assay: Minimum inhibitory concentration, broth micro-dilution (CLSI); format: cell-based; conditions: read-out: MIC (μg/mL) E. coli
Method: Cells were inoculated onto plates of Trypyticase Soy Agar or Luria Agar respectively and grown at 35° C. for 20 hours. Inocula suspensions were prepared by scraping cells into 1 mL of testing media (cation adjusted Mueller Hinton Broth supplemented with 0.002% v/v Tween-80) and diluting to a final OD600 nm of 0.01.
as §2

[5] = MRSA / NRS 384 / USA300, 22 h, read-out: MIC (μg/mL) S. aureus
[6] = MRSA / NRS 384 / USA300, MRSA USA 300, NRS384, 35° C., 22 hours, cation adjusted Mueller Hinton Broth with 0.002% Tween-80, read-out: MIC (μg/mL) S. aureus
[7] = ATCC25922, E. coli ATCC 25922, 35° C., 22 hours

T1 sequence (P0A070 whole entry): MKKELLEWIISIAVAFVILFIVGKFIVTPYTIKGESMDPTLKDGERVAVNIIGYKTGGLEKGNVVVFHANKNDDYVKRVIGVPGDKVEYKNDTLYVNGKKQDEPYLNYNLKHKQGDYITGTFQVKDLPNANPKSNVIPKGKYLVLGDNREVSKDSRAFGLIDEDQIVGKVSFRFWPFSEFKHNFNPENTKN

Row | Compound | MIC [1, 5] | IC50 [2] | MIC [3] | MIC ([4]; ATCC25922, 22 h) | MIC [1, 6] | MIC [4, 7]
1 | C#CCNC(=O)[C@@H]1Cc2ccc(OCCN)c(c2)-c2cc(ccc2OCCN)[C@H](N(C)C(=O)[C@H](CCCN)NC(=O)c2ccc(-c3ccc(CCCC)cc3)cc2)C(=O)N[C@@H](C)C(=O)N1 [Compound 129] | 0.5 µg/mL (≈ 0.564 µM) | 2.2 nM | 0.094 µg/mL (≈ 0.106 µM) | 4 µg/mL (≈ 4.51 µM) |  | 
2 | CCCCCCCCc1ccc(C(=O)N[C@@H](CCN)C(=O)N(C)[C@@H]2C(=O)N[C@@H](C)C(=O)N[C@H](c3noc(=O)[nH]3)Cc3ccc(OCCN)c(c3)-c3cc2ccc3OCCN)c(C)c1 [Compound 131] |  | 2.1 nM | 0.0078 µg/mL (≈ 0.00896 µM) |  | 0.094 µg/mL (≈ 0.108 µM) | 0.5 µg/mL (≈ 0.575 µM)
3 | CCCCCCCCc1ccc(C(=O)N[C@@H](CCN)C(=O)N(C)[C@@H]2C(=O)N[C@@H](C)C(=O)N[C@H](c3noc(=S)[nH]3)Cc3ccc(OCCN)c(c3)-c3cc2ccc3OCCN)c(C)c1 [Compound 133] |  | 2.3 nM | 0.094 µg/mL (≈ 0.106 µM) |  | 1 µg/mL (≈ 1.13 µM) | 8 µg/mL (≈ 9.03 µM)
4 | CCCCc1ccc(-c2ccc(C(=O)N[C@@H](CCCN)C(=O)N(C)[C@@H]3C(=O)N[C@@H](C)C(=O)N[C@H](C(=O)NC#N)Cc4ccc(OCCN)c(c4)-c4cc3ccc4OCCN)cc2)cc1 [Compound 134] |  | 7.1 nM | 0.13 µg/mL (≈ 0.149 µM) |  | 1 µg/mL (≈ 1.14 µM) | 4 µg/mL (≈ 4.58 µM)
5 | CCCCc1ccc(-c2ccc(C(=O)N[C@@H](CCCN)C(=O)N(C)[C@@H]3C(=O)N[C@@H](C)C(=O)N[C@H](c4nccc(=O)[nH]4)Cc4ccc(OCCN)c(c4)-c4cc3ccc4OCCN)cc2)cc1 [Compound 135] | > 4 µg/mL |  | 1.5 µg/mL (≈ 1.67 µM) | 32 µg/mL (≈ 35.6 µM) |  | 
6 | CCCCc1ccc(-c2ccc(C(=O)N[C@@H](CCCN)C(=O)N(C)[C@@H]3C(=O)N[C@@H](C)C(=O)N[C@H](C(=O)NO)Cc4ccc(OCCN)c(c4)-c4cc3ccc4OCCN)cc2)cc1 [Compound 136] | 0.38 µg/mL (≈ 0.439 µM) | 1.2 nM | 0.13 µg/mL (≈ 0.15 µM) | 2 µg/mL (≈ 2.31 µM) |  | 
7 | CCCCc1ccc(-c2ccc(C(=O)N[C@@H](CCCN)C(=O)N(C)[C@@H]3C(=O)N[C@@H](C)C(=O)N[C@H](C(=O)NN)Cc4ccc(OCCN)c(c4)-c4cc3ccc4OCCN)cc2)cc1 [Compound 137] | 0.5 µg/mL (≈ 0.579 µM) | 1.4 nM | 0.094 µg/mL (≈ 0.109 µM) | 3 µg/mL (≈ 3.47 µM) |  | 
8 | CCCCc1ccc(-c2ccc(C(=O)N[C@@H](CCCN)C(=O)N(C)[C@@H]3C(=O)N[C@@H](C)C(=O)N[C@H](/C=C/C#N)Cc4ccc(OCCN)c(c4)-c4cc3ccc4OCCN)cc2)cc1 [Compound 138] | 4 µg/mL (≈ 4.67 µM) |  | 0.5 µg/mL (≈ 0.583 µM) | 16 µg/mL (≈ 18.7 µM) |  | 
9 | C=CC(=O)N(C)NC(=O)[C@@H]1Cc2ccc(OCCN)c(c2)-c2cc(ccc2OCCN)[C@H](N(C)C(=O)[C@H](CCN)NC(=O)c2ccc(CCCC)cc2C)C(=O)N[C@@H](C)C(=O)N1 [Compound 144] |  |  | 2 µg/mL (≈ 2.34 µM) |  | > 4 µg/mL | 64 µg/mL (≈ 74.8 µM)
10 | C[C@@H]1NC(=O)[C@@H](N(C)C(=O)[C@H](CCCCN)NC(=O)c2ccc(-c3ccc(Cl)cc3)cc2)c2ccc(O)c(c2)-c2cc(ccc2O)C[C@@H](C(=O)NN(C)C(=O)CCl)NC1=O [Compound 145] | 2 µg/mL (≈ 2.32 µM) |  | 4 µg/mL (≈ 4.65 µM) | > 64 µg/mL |  | 
11 | CCCCCCc1ccc(C(=O)N[C@@H](CCN)C(=O)N(C)[C@@H]2C(=O)N[C@@H](C)C(=O)N[C@H](C(=O)O)Cc3ccc(O)c(c3)-c3cc2ccc3O)c(C)c1 [Compound 146] | > 4 µg/mL |  | 0.75 µg/mL (≈ 1.05 µM) | > 64 µg/mL |  | 

From US11072635B2, “Macrocyclic broad spectrum antibiotics” (priority 2015, dated 2021)
